Reference: ChEMBL document CHEMBL3232975, “Using ovality to predict nonmutagenic, orally efficacious pyridazine amides as cell specific spleen tyrosine kinase inhibitors” (J Med Chem, 2014)
≈ marks a conversion by molar mass, not a printed value.

How the values were obtained:
[1] = Apparent terminal half life in mouse at 1 mg/kg, iv; format: ADME, organism-based; parameters: dose 1 mg/kg, route intravenous; conditions: in vivo, read-out: betat1/2(app) (converted)
[2] = Volume of distribution at steady state in mouse at 1 mg/kg, iv; format: ADME, organism-based; parameters: dose 1 mg/kg, route intravenous; conditions: in vivo, read-out: Vdss
[3] = Oral bioavailability in mouse at 10 to 20 mg/kg; format: ADME, organism-based; conditions: in vivo
Mus musculus [4] = assay: Dose-normalized AUC in mouse at 10 to 20 mg/kg, po; format: ADME, organism-based; parameters: dose 10-20 mg/kg, route oral; conditions: in vivo
[5] = Total plasma clearance in mouse at 1 mg/kg, iv; format: ADME, organism-based; parameters: dose 1 mg/kg, route intravenous
[6] = Metabolic stability in rat liver microsomes; format: ADME; conditions: read-out: Stability
[7] = Metabolic stability in human liver microsomes; format: ADME; conditions: read-out: Stability
[8] = Solubility of the compound by LYSA; format: physicochemical
[9] = Oral bioavailability in mouse at 30 mg/kg; format: ADME, organism-based; conditions: in vivo
Mus musculus [10] = assay: Dose-normalized AUC in mouse at 30 mg/kg, po; format: ADME, organism-based; parameters: dose 30 mg/kg, route oral; conditions: in vivo
[11] = Apparent terminal half life in mouse at 0.5 mg/kg, iv; format: ADME, organism-based; parameters: dose 0.5 mg/kg, route intravenous; conditions: in vivo, read-out: betat1/2(app) (converted)
[12] = Cmax in mouse at 30 mg/kg, po; format: ADME, organism-based; parameters: dose 30 mg/kg, route oral; conditions: in vivo
[13] = Total plasma clearance in mouse at 0.5 mg/kg, iv; format: ADME, organism-based; parameters: dose 0.5 mg/kg, route intravenous
[14] = Volume of distribution at steady state in mouse at 0.5 mg/kg, iv; format: ADME, organism-based; parameters: dose 0.5 mg/kg, route intravenous; conditions: in vivo, read-out: Vdss
[15] = Oral bioavailability in mouse at 5 mg/kg; format: ADME, organism-based; conditions: in vivo
[16] = Cmax in mouse at 5 mg/kg, po; format: ADME, organism-based; parameters: dose 5 mg/kg, route oral; conditions: in vivo
Mus musculus [17] = assay: Dose-normalized AUC in mouse at 5 mg/kg, po; format: ADME, organism-based; parameters: dose 5 mg/kg, route oral; conditions: in vivo

Row | SMILES | half-life [1] | Vd [2] | bioavailability [3] | AUC/dose (Mus musculus [4]) | clearance [5] | CLhep predicted [6] | CLhep predicted [7] | solubility [8] | also measured
1 | COc1ccc(Nc2cc(NCCN)nnc2C(N)=O)nc1C(C)C | 1.74 h | 1.4 L/kg | 61% | 609 ng/mL.hr/(mg/kg) | 16.7 mL/min/kg | – | – | – | –
2 | NC(=O)c1nnc(N[C@@H]2CCCC[C@@H]2N)cc1Nc1ccc2c(n1)CCC2 | – | – | – | – | – | 27 mL/min/kg | 2 mL/min/kg | 404 µg/mL (≈ 1100 µM) | –
3 | COc1ccc(Nc2cc(N[C@@H]3CCOC[C@@H]3N)nnc2C(N)=O)nc1C(C)C | 1.96 h | 3.67 L/kg | 92% | 365 ng/mL.hr/(mg/kg) | 42.2 mL/min/kg | – | – | – | –
4 | CCCc1nc(Nc2cc(NCCN)nnc2C(N)=O)ccc1OC | 1.28 h | 0.63 L/kg | 75% | 1470 ng/mL.hr/(mg/kg) | 8.52 mL/min/kg | – | – | – | –
5 | COc1ccc(Nc2cc(N[C@@H]3CCCC[C@@H]3N)nnc2C(N)=O)nc1OC | – | – | – | – | – | 14 mL/min/kg | 2 mL/min/kg | 522 µg/mL (≈ 1350 µM) | –

Continued, in another order:

Row | half-life [1] | Vd [2] | bioavailability [3] | AUC/dose (Mus musculus [4]) | clearance [5] | CLhep predicted [6] | CLhep predicted [7] | solubility [8] | SMILES | also measured
6 | – | – | – | – | – | 27 mL/min/kg | 2 mL/min/kg | 471 µg/mL (≈ 1380 µM) | Cc1cccc(Nc2cc(N[C@@H]3CCCC[C@@H]3N)nnc2C(N)=O)n1 | –
7 | – | – | – | – | – | 18 mL/min/kg | 3 mL/min/kg | 390 µg/mL (≈ 1090 µM) | Cc1nc(Nc2cc(N[C@@H]3CCCC[C@@H]3N)nnc2C(N)=O)ccc1F | bioavailability [9]: 20%; AUC/dose (Mus musculus [10]): 568 ng/mL.hr/(mg/kg); half-life [11]: 3.26 h; Cmax [12]: 1560 ng/mL; clearance [13]: 5.57 mL/min/kg; Vd [14]: 1.44 L/kg
8 | – | – | – | – | – | 20 mL/min/kg | 7 mL/min/kg | 345 µg/mL (≈ 918 µM) | Cc1nc(Nc2cc(N[C@@H]3CCCC[C@@H]3N)nnc2C(N)=O)ccc1Cl | bioavailability [9]: 40%; bioavailability [15]: 51%; AUC/dose (Mus musculus [10]): 9753 ng/mL.hr/(mg/kg); half-life [11]: 3.92 h; Cmax [12]: 144 ng/mL; clearance [13]: 8.65 mL/min/kg; Vd [14]: 2.74 L/kg; Cmax [16]: 386 ng/mL; AUC/dose (Mus musculus [17]): 970 ng/mL.hr/(mg/kg)
9 | – | – | – | – | – | 23 mL/min/kg | 1 mL/min/kg | 329 µg/mL (≈ 926 µM) | Cc1ccc(Nc2cc(N[C@@H]3CCCC[C@@H]3N)nnc2C(N)=O)nc1C | AUC/dose (Mus musculus [17]): 25.9 ng/mL.hr/(mg/kg)
